Where no end group is shown, it is not given here. [ ]: non-standard residue; d: D form.

We go through three molecules from patent publication US12134663B2, “Cationic peptides for activating Lck” (Interk Peptide Therapeutics Limited, priority 2018, dated 2024).

In assay [1] the test system is isolated CD4+ T cells. In words: IL-18Ra expression on stimulated CD4+ T cells. It is filed as cell-based, human. The note with it: 24 hours; data not shown. As for the experimental part: Isolated CD4+ T cells were stimulated with anti-CD3 anti-CD28 Dynabeads™ and cultured together with the Lck activating polypeptides RSKAKNPLY-RRRRRRRRR (SEQ ID NO: 24), and RSKAKNPLY-RRRRRRRRR (SEQ ID NO: 24) comprising only D amino acids (SEQ ID NO: 129), for 24 hours after which cells were assessed for IL-18Ra expression by flow cytometry.

For assay [2], the system named is isolated human CD4+ T cells. In words: IFN-γ secretion in stimulated CD4+ T cell assay. It is filed as cell-based. The note with it: anti-CD3 anti-CD28 Dynabeads, 24 hours. The protocol: The ability of Lck activating polypeptides to alter IFN-γ secretion by isolated human CD4+ T cells in a stimulated CD4+ T cell assay was also examined. In brief, Isolated CD4+ T cells were stimulated with anti-CD3 anti-CD28 Dynabeads™ and cultured together with the Lck activating polypeptides RRRRRRRRR (SEQ ID NO: 6, IK00900) and RSKAKNPLY-RRRRRRRRR (SEQ ID NO: 24, IK14800) for 24 hours after which supernatants were assessed for IFN-γ by ELISA.
The ability of Lck activating polypeptides comprising D amino acids to alter IFN-γ secretion by isolated human CD4+ T cells in a stimulated CD4+ T cell assay was also examined. In brief, Isolated CD4+ T cells were stimulated with anti-CD3 anti-CD28 Dynabeads™ and cultured together with the Lck activating polypeptide RSKAKNPLY-RRRRRRRRR (SEQ ID NO: 24, IK14800), or the Lck activating polypeptide RSKAKNPLY-RRRRRRRRR (SEQ ID NO: 24) comprising only D amino acids (SEQ ID NO: 129, IKD14800), for 24 hours after which supernatants were assessed for IFN-γ by ELISA.

Assay [3] relates to isolated human CD8+ T cells. In words: IFN-γ secretion in stimulated CD8+ T cell assay. It is filed as cell-based. The note with it: anti-CD3 anti-CD28 Dynabeads, 24 hours. As for the experimental part: The ability of Lck activating polypeptides to alter IFN-γ secretion by isolated human CD8+ T cells in a stimulated CD8+ T cell assay was examined. In brief, Isolated CD8+ T cells were stimulated with anti-CD3 anti-CD28 Dynabeads™ and cultured together with the Lck activating polypeptides RRRRRRRRR (SEQ ID NO: 6, IK00900) and RSKAKNPLY-RRRRRRRRR (SEQ ID NO: 24, IK14800) for 24 hours after which supernatants were assessed for IFN-γ by ELISA.
In brief, Isolated CD8+ T cells were stimulated with anti-CD3 anti-CD28 Dynabeads™ and cultured together with the Lck activating polypeptide RSKAKNPLY-RRRRRRRRR (SEQ ID NO: 24), comprising only D amino acids (SEQ ID NO: 129, IKD14800), for 24 hours after which supernatants were assessed for IFN-γ by ELISA.

For assay [4], the system named is anti-CD3 stimulated PBMCs. In words: IL-12p70 secretion in anti-CD3 stimulated PBMCs. It is filed as cell-based, human. The note with it: 24 hours. As for the experimental part:
The ability of Lck activating polypeptides to alter IL-12 (IL-12p70) secretion was examined further. In brief, anti-CD3 stimulated PBMCs were cultured together with the Lck activating polypeptides RVKVKVVVV-RRRRRRRRR (SEQ ID NO: 58, “IK15800”), RSKAKNPLY-RRRRRRRRR (SEQ ID NO: 24, “IK14800”), and RVKVKVVVV-RRRRRRRRR (SEQ ID NO: 58) and RSKAKNPLY-RRRRRRRRR (SEQ ID NO: 24) comprising only D amino acids (SEQ ID NO: 111, “IKD15800”, and SEQ ID NO: 129, “IKD14800”, respectively), in the presence and absence of anti-CD40L blocking antibody for 24 hours. Supernatants were assessed for IL-12p70 levels by ELISA.
The ability of Lck activating polypeptides to alter IL-12 (IL-12p70) secretion was examined relative to no peptide. In brief, PBMCs were cultured together with anti-CD3 (1 ug/ml) and the Lck activating polypeptide RSKAKNPLY-RRRRRRRRR (SEQ ID NO: 24) or RVKVKVVVV-RRRRRRRRR (SEQ ID NO: 58) for 24 or 72 hours. Supernatants were assessed for IL-12p70 levels by ELISA.

For assay [5], the system named is isolated CD8+ T cells. In words: IL-18Ra expression on stimulated CD8+ T cells. It is filed as cell-based, human. The note with it: 24 hours; data not shown. The protocol:
The effect of Lck activating polypeptides on IL-18Ra expression on CD4+ and CD8+ T cells in stimulated CD4+ and CD8+ T cell assays was examined. In brief, isolated CD8+ T cells were stimulated with anti-CD3 anti-CD28 Dynabeads™ and cultured together with the Lck activating polypeptides RSKAKNPLY-RRRRRRRRR (SEQ ID NO: 24), and RSKAKNPLY-RRRRRRRRR (SEQ ID NO: 24) comprising only D amino acids (SEQ ID NO: 129), for 24 hours after which cells were assessed for IL-18Ra expression by flow cytometry.

For assay [6], the system named is exhausted CD4+ T cells. Kind of assay: CD4+ T cell exhaustion assay, CD25 on restimulation. It counts as cell-based, murine. The note with it: 72 hours; relative to IK14000 control peptide. From the text:
A CD4+ T cell exhaustion assay using a murine model (Tg4 Ly5.1 (MBP-Tracker Mouse), B10PIxC57BL/6) was used whereby CD4+ T cell receptor transgenic T cells are stimulated with wild-type myelin basic protein peptide (WT-MBP) to produce fully responsive effector T cells or altered peptide ligand peptide MBP (APL-MBP) to produce exhausted T cells. These are rested in IL-2 and then a secondary stimulation with APC, a dose of APL-MBP peptide along with any treatments under investigation.
Spleens from the aforementioned mice were removed and processed to generate a single cell suspension of splenocytes. MBP-Tracker splenocytes were resuspended at 3×10^6/mL and stimulated with WT-MBP (control, non-exhausted cells) or APL-MBP (to generate exhausted cells). Cells were stimulated for 72 hr. Following stimulation, T cells were purified by Ficoll density gradient, and subsequently re-plated at 2×10^6/mL in 20 U/mL IL-2 for four days. […] Following 48-72b hours of culture the cells were assessed by flow cytometry for markers of IL-2Ra and proliferation (CD25 and Ki-67, respectively) and supernatant was collected for assessment of cytokine production (IFN-γ and TNF-α) by ELISA or multiplexed immunoassays. […]

Assay [7] addresses T1, Lck (Homo sapiens, UniProt P06239).
T1 construct: purchased Eurofins Pharma Discovery Services UK Limited
Kind of assay: In vitro Lck activation kinase study (Eurofins). The note with it: peptide 1 μM; relative to control. It is filed as biochemical. The protocol:
The ability of polypeptides of the present invention to activate Lck was examined in vitro. Lck is member of the Src family of tyrosine kinases. […] All results in are percentage Lck activity relative to control (100%).
Test polypeptides were assessed at a concentration of 1.0 μM.
The ability of polypeptides of the present invention to activate Src family kinases was examined in vitro. Kinase activation studies utilising peptides were carried out as described in Example 1, and all kinase activity values are shown as percentage relative to control.
The ability of polypeptides comprising both lysine and arginine to activate Lck in vitro was examined. Lck activation studies utilising peptides were carried out as described in Example 1, and all kinase activity values are shown as percentage relative to control.

For assay [8], the system named is CD3neg CD56+ NK cells. Kind of assay: CD3neg CD56+ NK cells within stimulated PBMCs (Ki67, CD25, CD215, CD360). It is filed as cell-based, human. The note with it: data not shown. The protocol:
The ability of Lck activating polypeptides to induce proliferation of isolated human CD3^neg CD56^+ NK cells within PBMCs was examined. In brief, anti-CD3 stimulated PBMCs were cultured together with the Lck activating polypeptide rvkvkvvvv-rrrrrrrrr (SEQ ID NO: 111, IKD15800) for 72 hours after which CD3^neg CD56^+ NK cells were assessed for Ki67 expression by flow cytometry. Ki67 is a proliferation marker used to determine the growth fraction of a given cell population, in this case CD3^neg CD56^+ NK cells.

The test system of assay [9] is isolated T cells (CD3+). In words: IL-2 secretion from isolated T cells (CD3+). It counts as cell-based, human. The note with it: anti-CD3 anti-CD28 Dynabeads, 0-1.25 μM, 72 hours. As for the experimental part: In brief, isolated T cells (CD3+) were stimulated with anti-CD3 anti-CD28 Dynabeads™ and cultured together the Lck activating polypeptides RSKAKNPLY-RRRRRRRRR (SEQ ID NO: 24, “IK14800”), RVKVKVVVV-RRRRRRRRR (SEQ ID NO: 58, “IK15800”), and RVKVKVVVV-RRRRRRRRR ([…]) comprising only D amino acids (i.e. rvkvkvvvv-rrrrrrrrr; […], “IKD15800”), over a 5-concentration range plus vehicle control (0-1.25 μM) for 72 hours after which supernatants were collected and assessed for IL-2 by ELISA.

Assay [10] concerns CD4+ T cells. In words: pSTAT4 expression in stimulated T cell assay. It is filed as cell-based, human. The note with it: 0-1.25 μM, 72 hours; data not shown. An excerpt:
The effect of Lck activating polypeptides on intracellular pSTAT4 expression in CD4+ and CD8+ T cells in a stimulated T cell assay was examined. In brief, isolated T cells (CD3+) were stimulated with anti-CD3 anti-CD28 Dynabeads™ and cultured together with the Lck activating polypeptides RSKAKNPLY-RRRRRRRRR (SEQ ID NO: 24), RVKVKVVVV-RRRRRRRRR (SEQ ID NO: 58) and RVKVKVVVV-RRRRRRRRR (SEQ ID NO: 58) comprising only D amino acids (SEQ ID NO: 111), over a 5-concentration range plus vehicle control (0-1.25 μM) for 72 hours after which […] assessed for p-STAT4 expression by flow cytometry.

Assay [11] deals with immature monocyte derived DCs (iMoDCs). In words: Dendritic cell phenotype (CD14 expression) in immature DC cultures. It counts as cell-based. The note with it: CD40L 5 ug/mL and anti-CD3, 72 hours; data not shown. As for the experimental part:
The effect of CD40L on dendritic cell phenotype (CD14 expression) in isolated immature DC cell cultures was examined. In brief, immature monocyte derived DCs (iMoDCs) were derived from isolated CD14+ monocytes cultured for 7 days in MoDC differentiation media. iMoDCs were cultured for 72 hours in the presence of CD40L (5 ug/mL) and anti-CD3 (1 ug/mL). After 72 hours, cells were assessed for CD14 and CD11c expression by flow cytometry to determine DC cell phenotype.
In brief, immature monocyte derived DCs (iMoDCs) were derived from isolated CD14+ monocytes cultured for 7 days in Mo-DC differentiation media. iMoDCs were cultured for 72 hrs in the presence of test peptides over a 5-point concentration curve plus vehicle (0-1.25 μM) and anti-CD3 (1 μg/mL). After 72 hrs, cells were assessed for CD14 and CD11c expression by flow cytometry to determine DC cell phenotype. Data presented indicates the mean respective CD14 positive or negative cell populations (%) within CD11c positive population in response to peptide treatment, +/− SEM, n=4. Data were analysed by RM two-way ANOVA with Dunnett's post-test comparing each peptide concentration with vehicle, *p<0.05, **p<0.01, ***p<0.001.

T1 sequence (P06239 whole entry): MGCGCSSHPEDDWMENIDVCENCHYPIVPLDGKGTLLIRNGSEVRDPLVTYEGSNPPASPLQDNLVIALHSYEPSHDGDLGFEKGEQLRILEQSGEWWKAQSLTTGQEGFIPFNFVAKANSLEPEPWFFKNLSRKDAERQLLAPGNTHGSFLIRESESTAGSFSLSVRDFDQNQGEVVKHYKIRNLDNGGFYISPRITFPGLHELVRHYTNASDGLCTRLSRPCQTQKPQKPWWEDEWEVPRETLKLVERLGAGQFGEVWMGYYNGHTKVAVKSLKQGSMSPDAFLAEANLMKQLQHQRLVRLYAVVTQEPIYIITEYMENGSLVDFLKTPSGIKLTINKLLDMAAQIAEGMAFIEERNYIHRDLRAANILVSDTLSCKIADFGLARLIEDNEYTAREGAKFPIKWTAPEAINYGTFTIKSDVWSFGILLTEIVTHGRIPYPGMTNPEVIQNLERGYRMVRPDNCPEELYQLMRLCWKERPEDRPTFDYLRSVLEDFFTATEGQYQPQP

As for “rskaknplyrrrrrrrrr ([dR][dS][dK][dA][dK][dN][dP][dL][dY][dR][dR][dR][dR][dR][dR][dR][dR][dR]) [IKD14800]”, the “IL-18Ra expression on CD4+ T cells” value in assay [1] was “increase IL-18Ra expression”. The “IFN-γ secretion relative to no peptide control” value in assay [2] and in assay [3] was “induces IFN-γ secretion” throughout. In addition, the “IL-12 (IL-12p70) secretion relative to cultures with anti-CD40L blocking antibody” value in [4] is given as “induce IL-12 secretion”. Moreover, in assay [5], the “IL-18Ra expression on CD8+ T cells” value is “increase IL-18Ra expression”. Further, the “expression of CD25 in exhausted CD4+ T cells upon restimulation” value in assay [6] was “increased”. Further, the “increase in Lck activity” value in assay [7] was determined as 490%.

Regarding “rvkvkvvvv-rrrrrrrrr ([dR][dV][dK][dV][dK][dV][dV][dV][dV][dR][dR][dR][dR][dR][dR][dR][dR][dR]) [IKD15800]”, the “proliferating population of CD3neg CD56+ NK cells (Ki67)” value in assay [8] (72 hours) is “increased the proliferating population”. In [8], the “population of CD3neg CD56+ NK cells that were CD25 positive” value was “increased the population”, the “population of CD3neg CD56+ NK cells that were CD215 positive” value is reported as “increased the population” and the “population of CD3neg CD56+ NK cells that were CD360 positive” value is listed as “increased the population”. Also, the “IL-2 secretion relative to control” value in [9] is reported as “induce IL-2 secretion”. In assay [10], the “p-STAT4 expression on CD4+ T cells” value is given as “increase p-STAT4 expression”. The “IL-12 (IL-12p70) secretion relative to cultures with anti-CD40L blocking antibody” value in assay [4] is “induce IL-12 secretion”.

B1: CD40L: CD40L (5 ug/mL) added to immature monocyte derived DC cultures (protein, UniProt P29965 113-261, looked up)
CD40 ligand, soluble form: MQKGDQNPQIAAHVISEASSKTTSVLQWAEKGYYTMSNNLVTLENGKQLTVKRQGLYYIYAQVTFCSNREASSQAPFIASLCLKSPGRFERILLRAANTHSSAKPCGQQSIHLGGVFELQPGASVFVNVTDPSQVSHGTGFTSFGLLKL
As to B1, the “proportion of CD14 negative CD11c+ dendritic cells” value in assay [11] is on record as “increased the proportion of CD14 negative CD11c+ dendritic cells”.
